Experimental data as given in patent publication US20240252546A1, “NEURITE OUTGROWTH PROMOTION KIT AND USE THEREFOR” (KEIO UNIVERSITY, priority 2021, published 2024).

Key:
[1] = test system: nerve cells induced from neurospheres derived from 201B7 cells; experiment: Neurite outgrowth of nerve cells differentiated from γ-secretase inhibitor-treated neurospheres (Experimental Example 1); format: cell-based, human; conditions: for neurite outgrowth, Tau protein immunostaining / neurite outgrowth (length of the neurite), βIII-tubulin immunostaining: 201B7 neurospheres cultured 24 hours with inhibitor (10 μM DAPT, 1 μM Compound 34), differentiated 14 days; for neurite outgrowth (length of the neurite), βIII-tubulin immunostaining: vs control and other γ-secretase inhibitors
From the text: Various γ-secretase inhibitors were allowed to act on neurospheres derived from human iPS cells. Subsequently, each neurosphere was induced to differentiate into nerve cells, and the neurite outgrowth was examined. The following inhibitors were used as γ-secretase inhibitors: DAPT (CAS Number: 208255-80-5), Compound 34 (CAS Number: 564462-36-8), L-685,458 (CAS Number: 292632-98-5), LY411575 (CAS number: 209984-57-6), Sulindac (CAS number: 38194-50-2, which is also an anti-inflammatory drug), and Compound E (CAS number: 209986-17-4).
First, 201B7 cells, which are cells of a human iPS cell line, were differentiated into neurospheres. 3 μM SB431542 (Tocris Bioscience, catalog number: “301836-41-9”) and 150 nM LDN193189 (StemRD Inc., catalog number: “1062368-24-4”) were added to a culture medium of 201B7 cells, and the cells were treated for 6 days.
Subsequently, the cells were dissociated and seeded in a cell culture dish (product name: “ultralow-attachment culture dish”, Corning Incorporated) at a cell density of 1× 10^5 cells/mL in a nerve induction medium, and then cultured for 6 days in a hypoxic and moist environment (4% O2 and 5% CO2) to carry out differentiation into neurospheres.
The culture medium used as the nerve induction medium was a culture medium obtained by adding a 2% B27 supplement (without vitamin A, Thermo Fisher Scientific, Inc., catalog number: “17504-044”), 20 ng/ml of FGF2 (PeproTech, Inc.), 10 μM Y27632 (Sigma-Aldrich Co., LLC, catalog number: “146986-50-7”), 1 μM retinoic acid (RA, Sigma-Aldrich Co., LLC, catalog number: “R2625-1G”), 3 μM CHIR 99021 (ReproCELL Inc., catalog number: “04-0004”), and 10 μM SB431542 (Calbiochem, catalog number: “301836-41-9”), to an MHM medium of which the composition is shown in Table 1 below.
Subsequently, the formed neurospheres were dissociated into single cells, the single cells were passaged in a modified nerve induction medium and cultured for 6 days in a hypoxic environment (4% O2). The culture medium used as the modified nerve induction medium was a culture medium obtained by adding a 2% B27 supplement (without vitamin A, catalog number: “17504-044”, Thermo Fisher Scientific, Inc.), 20 ng/ml of FGF2 (PeproTech, Inc.), 10 μM Y27632 (catalog number: “146986-50-7”, Sigma-Aldrich Co., LLC), and 1 μM retinoic acid (RA, catalog number: “R2625-1G”, Sigma-Aldrich Co., LLC), to an MHM medium of which the composition is shown in Table 1 above.
Subsequently, neurospheres were cultured for 24 hours in the presence of each γ-secretase inhibitor. Each inhibitor was added to a culture medium of the neurosphere so that the final concentration was 10 μM for DAPT, 1 μM for Compound 34, 10 μM for L-685,458, 10 μM for LY411575, 10 μM for Sulindac, and 5 μM for Compound E. In addition, a control group cultured in the absence of a γ-secretase inhibitor was also prepared.
Subsequently, each neurosphere was seeded on a 48-well chamber slide (IWAKI & CO., LTD.) coated with poly-L-ornithine/fibronectin, cultured for 14 days in a culture medium containing no growth factor at 37° C. in an environment of 95% air and 5% CO2, and differentiated into nerve cells.
Subsequently, each of the obtained nerve cells was fixed with 4% paraformaldehyde in 0.1 M PBS, and each of βIII-tubulin, which is a nerve cell marker, and the Tau protein, which is frequently distributed in axons, was immunostained, and the length of the neurite was measured.
FIG. 2 is a graph in which the results of FIGS. 1(a) to 1(g) are quantified. […]

[2] = test system: spinal cord injury in the chronic phase; conditions: DAPT used on a neurosphere, neurosphere then transplanted into the site of injury; cited from earlier work
[3] = test system: nerve cells induced to differentiate from a neurosphere; conditions: nerve cells from a neurosphere on which DAPT has been allowed to act; cited from earlier work

SMILES	neurite outgrowth, Tau protein immunostaining [1]	neurite outgrowth (length of the neurite), βIII-tubulin immunostaining [1]	concentration at which the neurite outgrowth-promoting effect is obtained ([1]; compared with DAPT)	treatment of spinal cord injury in the chronic phase [2]	neurite outgrowth [3]	phosphorylation of p38 MAPK [3]
O=C1Nc2ccccc2C(c2ccccc2)=N[C@@H]1NC(=O)[C@H](c1ccc(F)cc1)[C@@H](CO)c1ccc(F)c(F)c1 [Compound 34]	particularly promoted	particularly promoted	low concentration as compared with DAPT			
C[C@H](NC(=O)Cc1cc(F)cc(F)c1)C(=O)N[C@H](C(=O)OC(C)(C)C)c1ccccc1 [DAPT]	particularly promoted	particularly promoted		can be treated	promoted	increased
